Source: patent publication US20260091082A1, “CYCLIC PEPTIDE DERIVATIVE COMPOSITION FOR TREATING OR PREVENTING EYE DISEASE” (DKS Co. Ltd., priority 2022, published 2026)
Several values for one entry are separate records, joined by “and”; a condition that tells them apart may be missing. Identical values can stand only once. Entries after “also recorded” stand apart in the source; their conditions may differ.

Columns and labels:
[1] = General condition observation (clinical signs) in anterior chamber aqueous humor pressure load rat model; format: in vivo, Rat; Slc: SD; design: key: —: No anormal sign; conditions: 1 mg/mL eye drop, right eye, per animal
Experimental: • Species and strains: Rat; Slc: SD • Number of animals on arrival and sex: 50 males • Age in weeks at arrival: 6 weeks old • Body weight range at arrival: 147.2 to 170.0 g • Source: Japan SLC, Inc.
The body weight of the animals was measured at a frequency of once a week or more, and the general condition observation was performed every day.
• Administration route: Eyedrop administration, intravenous administration • Administration method (eyedrop): Eyedrop administration was performed on a treated eye (right eye) of a rat using a micropipette 4 times a day (at intervals of 1.5 hours or more). • Administration method (intravenous): The amount of administration solution, calculated from the body weight on the day of administration, was administered from the tail vein using a syringe and an injection needle about 30 minutes before ischemic load. • Time of administration: Administration was performed according to the following schedule.

[2] = tested on: laser-induced choroidal neovascularization rat model; assay: Laser-induced choroidal neovascularization rat model: CNV area in choroidal flat mount (FITC-dextran); format: in vivo; conditions: for Area of CNV Lesion, Mean: 14 days 4 times a day, N=10; for Area of CNV Lesion, Mean / Individual Value of CNV Area in Each Animal: 14 days after laser
Experimental: The groups were set as in Table 8 below. Laser irradiation was performed on the right eye in 10 animals in each group. EYLEA (registered trademark) was administered intravitreally into the right eye of individuals in Group 2 immediately after laser irradiation. For the individuals of Groups 1, 3, and 4, eyedrop administration of the administration substances of each group was performed four times a day from the day of laser irradiation to the day before eyeball enucleation.
Animals to be laser-irradiated were subjected to pupil dilation with Mydorin (registered trademark) P ophthalmic solution, and subjected to general anesthesia by intramuscular injection of a mixed solution of ketamine hydrochloride/xylazine hydrochloride (4:1, v/v) (1 mL/kg) into the thigh muscle. Then, fundus of the right eye was then observed using a slit lamp (SL-130, Carl Zeiss Meditec AG), and laser irradiation was performed at six locations using a green laser photocoagulation device (GYC-500, Nidek Co., Ltd.), avoiding thick capillaries of the retina. The laser conditions were a wavelength of 532 nm (green), a spot size of 50 μm, an irradiation time of 0.1 sec, and a laser irradiation intensity of 300 mW. Except for the individuals to be administered EYLEA (registered trademark), sodium hyaluronate (Hyalein (registered trademark) ophthalmic solution 0.3%, Santen Pharmaceutical Co., Ltd.) as an eye drop for treatment of corneal and conjunctival epithelial disorders was instilled into both eyes after laser irradiation.
Levofloxacin hydrate (CRAVIT (registered trademark) 1.5% ophthalmic solution, Santen Pharmaceutical Co., Ltd.) as a broad-spectrum antibacterial eye drop and oxybuprocaine hydrochloride (Benoxil (registered trademark) 0.4% ophthalmic solution, Santen Pharmaceutical Co., Ltd.) as an ophthalmic topical anesthetic were once instilled into the right eye of rats in Group 2 (EYLEA (registered trademark) administration group) after end of laser irradiation, and then EYLEA (registered trademark) was intravitreally administered at a dose of 200 μg/5 μL/eye using a 33 G two-stage injection needle and a microsyringe (Ito Manufacturing Co., Ltd.). The microsyringe was washed with D-PBS before administration. Hyalein (registered trademark) ophthalmic solution 0.3% was instilled into both eyes after intravitreal administration.
Eyedrop administration of the test substance and the negative control administration solution was performed in a volume of 5 μL/eye using a micropipette (Eppendorf Research Plus V, Eppendorf) at the administration period and the number of times determined for each group (see Group constitution table of Item (2)). At that time, since a test substance solution adheres to an outer side of the tip, care was taken so that the adhering test substance solution was wiped off with a Kimwipe once each time of eyedrop administration, and an excessive amount of the test substance solution was not instilled. In addition, although the tip of the pipette tip was sharp, care was taken not to damage the eyeball surface. Immediately before administration, the administration solution was lightly (about several seconds) centrifuged using a small microcentrifuge Wonder Spin, and the supernatant was used for administration.
Fourteen days after laser irradiation (Day 14), under general anesthesia by intramuscular femoral administration (1 mL/kg) of a ketamine hydrochloride/xylazine hydrochloride (4:1, v/v) mixed solution, a 4% FITC-dextran solution was administered to the tail vein at a dose of 40 mg/l mL/animal.
After 1 minute from the tail vein administration of the 4% FITC-dextran solution, rats were euthanized by excessive anesthesia by administration of 129.6 mg/mL sodium pentobarbital solution and the right eye ball was enucleated. The enucleated eyeball was fixed in a 4% paraformaldehyde phosphate buffer (FUJIFILM Wako Pure Chemical Corporation, hereinafter referred to as 4% PFA) for 12 to 30 hours at normal temperature. […]

SMILES: CC[C@@]1(C)Oc2cc(ccc2O)C[C@H](NC)C(=O)N[C@@H](C(C)C)C(=O)N[C@@H]1C(=O)N[C@@H](CC(=O)O)C(=O)O [Compound 9]
- Clinical signs ([1]; Day 0, animals 201-210 (test group 2, dosed on the 2 days before model creation)): —
- Clinical signs ([1]; Day 0, animals 301-310 (test group 3, dosed 13 days from the day after model creation)): —
- Clinical signs ([1]; Day 1, animals 201-210 (test group 2, dosed on the 2 days before model creation)): —
- Clinical signs ([1]; Day 1, animals 301-310 (test group 3, dosed 13 days from the day after model creation)): —
- Clinical signs ([1]; Day 2, animals 201-210 (test group 2, dosed on the 2 days before model creation)): —
- Clinical signs ([1]; Day 2, animals 301-310 (test group 3, dosed 13 days from the day after model creation)): —
- Clinical signs ([1]; Day 3, animals 201-210 (test group 2, dosed on the 2 days before model creation)): —
- Clinical signs ([1]; Day 3, animals 301-310 (test group 3, dosed 13 days from the day after model creation)): —
- Clinical signs ([1]; Day 4, animals 201-210 (test group 2, dosed on the 2 days before model creation)): —
- Clinical signs ([1]; Day 4, animals 301-310 (test group 3, dosed 13 days from the day after model creation)): —
- Clinical signs ([1]; Day 5, animals 201-210 (test group 2, dosed on the 2 days before model creation)): —
- Clinical signs ([1]; Day 5, animals 301-310 (test group 3, dosed 13 days from the day after model creation)): —
- Clinical signs ([1]; Day 6, animals 201-210 (test group 2, dosed on the 2 days before model creation)): —
- Clinical signs ([1]; Day 6, animals 301-310 (test group 3, dosed 13 days from the day after model creation)): —
- Clinical signs ([1]; Day −1, animals 201-210 (test group 2, dosed on the 2 days before model creation)): —
- Clinical signs ([1]; Day −1, animals 301-310 (test group 3, dosed 13 days from the day after model creation)): —
- Clinical signs ([1]; Day −2, animals 201-210 (test group 2, dosed on the 2 days before model creation)): —
- Clinical signs ([1]; Day −2, animals 301-310 (test group 3, dosed 13 days from the day after model creation)): —
- Area of CNV Lesion, Mean ([2]; Group 3, eye drop 5 μg/5 μL/eye (1 mg/mL)): 471160.8 pixel
- Individual Value of CNV Area in Each Animal ([2]; Group 3 individual animals, eye drop 5 μg/5 μL/eye): 330375.8 pixel and 515551.8 pixel and 492136.5 pixel and 558285.0 pixel and 496494.0 pixel and 466828.5 pixel and 460996.3 pixel and 460127.0 pixel and 449544.0 pixel and 481268.8 pixel
- Area of CNV Lesion, Mean ([2]; Group 4, eye drop 50 μg/5 μL/eye (10 mg/mL)): 444173.4 pixel
- Individual Value of CNV Area in Each Animal ([2]; Group 4 individual animals, eye drop 50 μg/5 μL/eye): 313878.7 pixel and 591175.3 pixel and 382504.5 pixel and 527509.5 pixel and 426003.0 pixel and 447473.0 pixel and 394615.5 pixel and 494652.3 pixel and 438691.5 pixel and 425230.3 pixel
- CNV area compared with Group 1 (saline) / drug efficacy, in words ([2]; eyedrop 1 mg/mL (Group 3) and 10 mg/mL (Group 4), Dunnett's test): no significant difference in CNV area was observed; also recorded: no drug efficacy on CNV area was observed
- Dose dependence of CNV area reduction, in words ([2]; eyedrop 1 mg/mL and 10 mg/mL, 4 times/day for 14 days): reduction in CNV area correlated with the eyedrop administration dose was confirmed
